The values that follow come from PubChem BioAssay AID489035 (Sanford-Burnham Center for Chemical Genomics, 2010).

Active and inactive are the calls of the source. How the calls were made is not given here.

The test system of this assay is Jurkat NF-kB reporter, TCR-induced, luciferase luminescence. Nature of the assay: T-cell NF-kB luciferase reporter inhibition – Jurkat cells, luminescence, dose response (AID 489035). In general terms: A reporter such as luciferase makes a cellular process visible.

A word on the IC50: it is the concentration needed to halve the response being measured. Consider `CCOC(=O)COc1cccc2c(=O)n(CC(=O)NCc3ccccc3)ccc12`, for which the IC50 was > 80 µM (inactive).

For the compound `CC1(C)Cc2c(sc(NC(=O)COc3cccc4ccccc34)c2C#N)C(C)(C)N1`, the IC50 was 13.5 µM.

For the compound `Cc1ccc(NS(=O)(=O)c2ccc(-c3cnc(C4CC4)o3)cc2)c(C)c1`, the IC50 is 14.8 µM.

As to `COc1ccc(/C=N/NC(=O)c2[nH]c3ccc(Br)cc3c2-c2ccccc2)cc1`, the IC50 is 1.64 µM.

Take `COc1cc(C2c3cc4c(cc3CC3COC(=O)C32)OCO4)cc(OC)c1OC` (stereo not drawn): the IC50 was > 80 µM (inactive).

Take `Cn1cc(/C=N/n2cnc3scc(-c4ccc(Cl)cc4)c3c2=O)c2ccccc21`: the IC50 is > 80 µM (inactive).

Turning to `COc1ccccc1CNS(=O)(=O)c1ccc(-c2cnc(C3CC3)o2)cc1`, the IC50 is 31.3 µM (inactive).

On to `COc1cc(-c2noc(C)c2-c2ccc3[nH]ccc3c2)cc(OC)c1OC`, for which the IC50 was 25.3 µM (inactive).

Take `Cc1cc(/C=C2\Sc3ccccc3N2C)cc(C)[n+]1CC1CCCO1` (stereo not drawn): the IC50 was 19.2 µM.

For the compound `CC(C)n1c(CN(C)Cc2ccccc2)nc2c1c(=O)n(C)c(=O)n2C`, the IC50 is > 80 µM (inactive).

With `COc1cccc(/C=N/Nc2ccc(C(=O)O)cc2)c1O`, the IC50 was 0.28 µM.

As to `Cc1c(C(=O)OCc2ccccc2)[nH]c2c1C(=O)CC(c1ccco1)C2` (stereo not drawn), the IC50 was > 80 µM (inactive).

Turning to `CCN1/C(=C/c2ccc3cc(C)ccc3[n+]2CC)Sc2ccc3sccc3c21`, the IC50 was 3.1 µM.

Consider `Cc1ccc(/C=N/NC(=O)C2COc3ccccc3O2)s1` (stereo not drawn), for which the IC50 was > 80 µM (inactive).

As to `O=c1cc(-c2cccc(F)c2)[nH]c2ccccc12`, the IC50 was > 80 µM (inactive).

For `COc1ccc(-n2cc(-c3ccc(C)cc3)[n+]3c2SCC3)cc1`, the IC50 was > 80 µM (inactive).

On to `Cc1[nH]n(-c2ccccc2)c(=O)c1/C=N/Nc1nncc(-c2ccccc2)n1`, for which the IC50 is 3.32 µM.

On to `Cc1cccc(NS(=O)(=O)c2ccc(-c3cnc(C4CC4)o3)cc2)c1`, for which the IC50 was > 80 µM (inactive).

Take `O=C(N/N=C\c1c(O)ccc2ccccc12)c1ccc(S(=O)(=O)N2CCCCC2)cc1`: the IC50 was 0.98 µM.

Turning to `Cc1ccc(S(=O)(=O)Nc2cccc(-c3ccc4nncn4n3)c2)cc1`, the IC50 was > 80 µM (inactive).

As to `CCC(=O)NC(c1cccs1)c1ccc2cccnc2c1O` (stereo not drawn), the IC50 is 60.4 µM (inactive).

With `Cn1nc(CC(=O)Nc2ccc(N3CCN(C(=O)OC(C)(C)C)CC3)cc2)c2ccccc2c1=O`, the IC50 is > 80 µM (inactive).

Take `CN(C)c1ccc(-c2nn3c(-c4ccccc4Cl)nnc3s2)cc1`: the IC50 is > 80 µM (inactive).

Regarding `COc1ccc(C2=Nn3c([n+](C)c4ccccc43)SC2)cc1`, the IC50 is > 80 µM (inactive).

`Nc1nc(-c2ccccc2)cc(N2CCCCC2)n1`: the IC50 was > 80 µM (inactive).

With `COc1ccccc1C1=NOC(COc2ccc3c(C)cc(=O)oc3c2)C1` (stereo not drawn), the IC50 was > 80 µM (inactive).

On to `COC(=O)c1ccccc1NC(=O)CSc1nc(-c2ccco2)cc(C(F)(F)F)n1`, for which the IC50 was 72.2 µM (inactive).

As to `C/C(=N\NC(=O)c1cc(C)nc2ccccc12)c1ccccn1`, the IC50 was > 80 µM (inactive).

On to `COC(=O)c1ccc2nc(Nc3nc4c(F)cc(F)cc4s3)sc2c1`, for which the IC50 is 52.9 µM (inactive).

Consider `COC(=O)Nc1ccc(S(=O)(=O)N2CCCc3ccccc32)cc1`, for which the IC50 was > 80 µM (inactive).

On to `c1cc2c(cc1C1=NNC(=NC3CC3)SC1)OCCO2`, for which the IC50 is 0.26 µM.

`Cc1ccc2cccc(NS(=O)(=O)c3ccccc3)c2n1`: the IC50 is 0.98 µM.

In the case of `CCOc1ccccc1NC(=O)CN(c1ccc(OC)cc1)S(=O)(=O)c1c(C)noc1C`, the IC50 is > 80 µM (inactive).

Take `COc1ccc(Cl)cc1NC(=O)CN(C)CC(=O)Nc1ccccc1N1CCOCC1`: the IC50 was 41.5 µM (inactive).

`CCCCCCCn1c2c(c(=N)c3ccccc31)CCC2`: the IC50 is 12.3 µM.

On to `CCCCn1c2c(c(=N)c3c1CCC3)CCC2`, for which the IC50 is > 80 µM (inactive).

On to `O=S(=O)(Nc1ccc(F)cc1Cl)c1ccc(-c2cnc(C3CC3)o2)cc1`, for which the IC50 is > 80 µM (inactive).

`NS(=O)(=O)c1ccc(Sc2nc3ccccc3s2)c([N+](=O)[O-])c1`: the IC50 is 0.79 µM.

Regarding `COc1ccc(/C=C2/C(=O)OCc3cc(OC)c(OC)cc32)cc1`, the IC50 is > 80 µM (inactive).

Regarding `Oc1ccc2ccccc2c1/C=N/Nc1nnc(-c2ncc[nH]2)c2ccccc12`, the IC50 is > 80 µM (inactive).

For `O=C1C=CC(O)(c2cc(=O)c3c(O)cc(O)cc3o2)C=C1`, the IC50 was 2.21 µM.

As to `CCCCCCCCCn1c2c(c(=N)c3c1CCC3)CCCC2`, the IC50 was 3.4 µM.

In the case of `O=C(Nc1ccc(S(=O)(=O)N2CCOCC2)cc1)c1ccc(CN2CCc3ccccc3C2)cc1`, the IC50 was 12.7 µM.

As to `CS(=O)(=O)c1ccc(Sc2nc3ccccc3s2)c([N+](=O)[O-])c1`, the IC50 is 0.89 µM.

As for `COc1ccc(COC(=O)c2cc([N+](=O)[O-])ccc2N2CCOCC2)cc1F`, the IC50 was > 80 µM (inactive).

With `C=C(C)[C@@]12OC3(c4ccccc4)O[C@@H]1C1[C@@H]4O[C@]4(CO)[C@@H](O)[C@]4(O)C(=O)C(C)=C[C@H]4[C@@]1(O3)[C@H](C)[C@H]2OC(=O)/C=C/C=C/c1ccccc1` (stereo partly drawn), the IC50 was 27.9 µM (inactive).

As for `Cc1ccc(NC(=O)c2cc3ccccc3oc2=O)cc1S(=O)(=O)N(C)C`, the IC50 was 0.98 µM.

`COc1ccc(NC(=O)/C(Cl)=C(/Cl)S(=O)Cc2ccc(C)cc2)cn1` (stereo not drawn): the 50% inhibitory concentration (IC50) was 0.32 µM.

Take `COc1cc([C@@H]2c3cc4c(cc3[C@H](O)[C@H]3COC(=O)[C@H]23)OCO4)cc(OC)c1OC`: the IC50 was > 80 µM (inactive).

`CCN(CC)S(=O)(=O)c1ccc(NC(=O)c2ccc(CN3CCOCC3)cc2)cc1`: the IC50 is > 80 µM (inactive).

For `Cc1cccc(N2CCN(C(=O)c3ccc(S(=O)(=O)N(C)c4ccccc4)cc3)CC2)c1C`, the IC50 is > 80 µM (inactive).

With `COc1cccc(CN(C)C(=O)c2ccc(OCC(=O)Nc3cccc(C(F)(F)F)c3)c(OC)c2)c1`, the IC50 is 40.5 µM (inactive).

In the case of `CC1(C)CC(N2CCN(C(c3ccccc3)c3ccccc3)CC2)=CC(=[N+]2CCCCC2)C1`, the half-inhibitory concentration (IC50) was 15.9 µM.

On to `CC1CC(C)CN(S(=O)(=O)c2ccc(NC(=O)c3ccc(=O)[nH]c3)cc2)C1` (stereo not drawn), for which the IC50 was > 80 µM (inactive).

`COc1ccc(CCNc2nnc(Sc3nnnn3-c3ccccc3)s2)cc1OC`: the IC50 is 10.6 µM.

With `COc1ccc(N(C(=O)c2ccccc2C)S(=O)(=O)c2cccs2)cc1`, the IC50 is 20 µM (inactive).

`CC(=O)c1ccc(Oc2cc(C)nc(-n3nc(C)cc3C)n2)cc1`: the IC50 was 13.5 µM.

Consider `Cc1c(C)c2cccnc2c2ncccc12`, for which the IC50 was 2.02 µM.

Take `CCCC(=O)NC(c1ccc(C)cc1)c1ccc2cccnc2c1O` (stereo not drawn): the IC50 was 8.63 µM.

As to `COc1ccccc1-c1nnc2sc(-c3ccc(N(C)C)cc3)nn12`, the IC50 is > 80 µM (inactive).

As for `CNC[C@H](CC1CCCCC1)NC[C@H](Cc1ccccc1)NCCC12CC3CC(CC(C3)C1)C2`, the IC50 is 2.42 µM.

Consider `COc1cccc(N2CCN(c3ncnc4c3cnn4-c3ccc(C)cc3C)CC2)c1`, for which the IC50 was 11 µM.

Consider `COc1ccc(CS(=O)/C(Cl)=C(/Cl)C(=O)Nc2ccc(OC)nc2)cc1` (stereo not drawn), for which the IC50 was 0.54 µM.

On to `COc1cc(C(=O)OCCc2cc3ccccc3c(=O)o2)cc(OC)c1OC`, for which the IC50 was 21.6 µM (inactive).

`Cc1ccc(C(=O)O/N=C(\N)c2ccccn2)c(C)c1`: the IC50 was 0.42 µM.

For the compound `CCOC(=O)C(C)Oc1cccc2c(=O)n(CC(=O)NCc3ccc(F)cc3)ccc12` (stereo not drawn), the IC50 was > 80 µM (inactive).

`Cn1cc(C(=O)N/N=C/c2c(O)ccc3ccccc23)ccc1=O`: the IC50 was 1.89 µM.

On to `Cc1ccc(Nc2nc(-c3c(C)nc4ncccn34)cs2)cc1`, for which the IC50 is 18.7 µM.

With `CC1=Nc2ccccc2/C1=C\c1sc(Nc2ccc(C)cc2)nc1O`, the IC50 is > 80 µM (inactive).

As to `CCCCC(=O)NC(c1ccc(N(CC)CC)cc1)c1ccc2cccnc2c1O` (stereo not drawn), the IC50 is 8.89 µM.

As for `COC(=O)c1cn(NC(=O)c2cc([N+](=O)[O-])ccc2F)c(=O)c2ccccc12`, the IC50 is 0.46 µM.

For the compound `Cc1cc(-n2c(C)cc(C(=O)CSc3ncnc4ccccc34)c2C)no1`, the concentration for half-maximal inhibition (IC50) was less than 0.16 µM.

As for `O=[N+]([O-])c1ccc(-c2nc(C(Cl)Cl)c3ccccc3n2)cc1`, the IC50 was 1.12 µM.

For `CC(=O)O[C@H]1C(=O)[C@@]2(C)C([C@H](OC(=O)c3ccccc3)[C@]3(O)C[C@H](OC(=O)[C@H](O)[C@@H](NC(=O)Cc4ccccc4)c4ccccc4)C(C)=C1C3(C)C)[C@]1(OC(C)=O)CO[C@@H]1C[C@@H]2O` (stereo partly drawn), the IC50 was > 80 µM (inactive).

For `Cc1c(C(=O)OC2CCCC2)[nH]c2c1C(=O)CC(c1ccco1)C2` (stereo not drawn), the IC50 was > 80 µM (inactive).

As for `CC(=O)c1c(C)[nH]c(C(=O)OCC(=O)Nc2ccc(C)cc2[N+](=O)[O-])c1C`, the IC50 is > 80 µM (inactive).

For `COc1ccc(OC)c(-c2nnc3n2N=C(c2ccc(OC)c(OC4CCCC4)c2)CS3)c1`, the IC50 is 15.9 µM.

Turning to `CCOC(=O)c1ccc(NC(=O)Cn2cnc3cc(C)c(C)cc32)cc1`, the IC50 is > 80 µM (inactive).

Regarding `Cc1ccc(O)c(NC(=O)CCC2CCCCC2)c1`, the IC50 is > 80 µM (inactive).

Consider `CCOc1ccccc1C(=O)N1CCN(c2cccc(Cl)c2)CC1`, for which the IC50 was > 80 µM (inactive).

On to `CSC1=NC(C(Cl)(Cl)Cl)N=C(c2ccc(C)cc2)N1` (stereo not drawn), for which the IC50 was > 80 µM (inactive).

`CCOC(=O)c1[nH]c(C)c(C(=O)c2cc(F)ccc2F)c1C`: the IC50 was > 80 µM (inactive).

On to `O=C(O)c1ccc(N/N=C/c2ccc3c(c2)OCO3)cc1`, for which the IC50 is 2.78 µM.

Turning to `COc1ccc(NC(=O)/C(Cl)=C(/Cl)S(=O)Cc2ccccc2Cl)cn1` (stereo not drawn), the concentration for half-maximal inhibition (IC50) was 0.64 µM.

Turning to `CCOc1ccccc1NS(=O)(=O)c1ccc(-c2cnc(C3CC3)o2)cc1`, the IC50 was 6.3 µM.

On to `CCCCCCCCCCn1c2c(c(=N)c3c1CCC3)CCC2`, for which the IC50 was 5.17 µM.

With `COc1ccc(/C=N/Nc2cc(C)nc3ccc(OC)cc23)c(OC)c1`, the IC50 was 2.4 µM.

As for `C[C@]12CC[C@H](O)C[C@H]1CC[C@@H]1[C@@H]2CC[C@]2(C)[C@@H](C3=CC(=O)OC3)CC[C@]12O`, the IC50 was 3.53 µM.
